# In US10040838B2, “CRHR2 peptide agonists and uses thereof” (JANSSEN PHARMACEUTICA NV, priority 2008, dated 2018):
# Residues, ends and D or L forms follow the SMILES beside them. No end group written: not given here. *: point of attachment. Succinimide(1-Et,3-yl) = CCN1C(=O)CC(*)C1=O
# Target: T1, human CRHR2 (Homo sapiens, UniProt Q13324)
# T1 construct: expressed in transfected cells
# T1 sequence (Q13324 1-411): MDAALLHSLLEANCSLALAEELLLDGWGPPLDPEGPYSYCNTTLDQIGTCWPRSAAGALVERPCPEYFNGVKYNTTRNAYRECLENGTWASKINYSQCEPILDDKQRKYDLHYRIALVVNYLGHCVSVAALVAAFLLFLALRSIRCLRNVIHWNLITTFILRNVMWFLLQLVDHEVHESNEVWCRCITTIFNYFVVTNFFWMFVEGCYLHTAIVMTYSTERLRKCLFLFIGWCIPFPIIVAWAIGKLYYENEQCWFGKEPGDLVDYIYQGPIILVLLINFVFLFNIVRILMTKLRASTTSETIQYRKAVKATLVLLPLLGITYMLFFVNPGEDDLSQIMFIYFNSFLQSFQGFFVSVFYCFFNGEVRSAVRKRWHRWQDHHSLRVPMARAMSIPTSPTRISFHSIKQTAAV
# Assay: cAMP assay in h-CRHR2 transfected SK-N-MC cells
# Type: cell-based
# Conditions: for Log DR: Table 13, h-SCP control pA50 minus test compound pA50 within same assay batch
# Method: The concentration required for 50% maximum effect (A50) was 0.4 nM.
# Human CRHR1 (accession number X72304) or CRHR2 (accession number U34587) were cloned into pcDNA3.1/Zeo expression vector and stably transfected into SK-N-MC cells by electroporation. Cells were maintained in MEM w/Earl's Salt with 10% FBS, 50 I.U. penicillin, 50 μg/ml streptomycin, 2 mM L-glutamine, 1 mM sodium pyruvate and 0.1 mM nonessential amino acids, 600 μg/ml G418. Cells were grown at 37° C. in 5% CO2.
# Cells were plated in 96-well tissue culture dishes (Biocoat from BD Biosciences) overnight at 50,000 cell/well. Cells were washed with PBS then resuspended in DMEM F-12 without phenol red, containing 10 μM isobutylmethylxanthine (IBMX). Cells were incubated with the peptides at concentrations ranging from 1 pM to 10 μM for 60 min at 37° Celsius. […] Forskolin (10 μM), a direct stimulant of adenylate cyclase, was used as positive control. The assays were stopped by the addition of 0.5 M HCl and mixing by orbital rotation for 2 h at 4° Celsius.
# To assess the activity of the inventive peptide at the CRHR2, an intracellular cAMP measurement test using a Flash plate radioactive assay (Catalog No. Cus56088; Perkin Elmer, MA, U.S.A.) was employed.
# Transfected SK-N-MC cells were plated in 96-well Biocoat tissue culture dishes (BD Biosciences, San Jose, Calif., U.S.A) overnight at 50,000 cell/well. Cells were first washed with PBS and then suspended with DMEM/F-12 without phenol red, containing […]. Suspended cells were transferred into a 96-well flash plate coated with scintillant fluid. Cells were incubated with peptides ranging from […], for 60 min, at 37° Celsius. Forskolin at 10 μM was used as positive control. After ligand stimulation, cells were lysed by the addition of 0.5M HCl and mixed by orbital rotation for 2 h at 4° Celsius in order to release intracellular cAMP into the media.
# Media containing released intracellular cAMP was transferred to a 96-well flash plate coated with scintillant fluid containing an anti-cAMP antibody. In this assay, intracellular cAMP competes with ^125I-labeled cAMP binding to the antibody. To generate a standard curve, cAMP ranging from 2.5 to 250 pmoles/ml was included in the experiment. [^125I]-cAMP was measured on a TopCount scintillation counter (Perkin Elmer, MA, U.S.A).
# Individual agonist concentration-response curve data were fitted to the Hill equation, see formula below, using GraphPad Prism (Graphpad Software, La Jolla, Calif., U.S.A.), to provide estimates of agonist concentration needed to generate one-half maximal response (A50), and the maximal asymptote (α) and Hill slope (nH) parameters. In this equation, [A] is the agonist concentration and E is the measured effect:
# For display purposes the mean fitted parameter estimates were used to generate a single E/[A] curve shown superimposed on the mean experimental data. Potency estimates for agonists, pA50, are expressed as the negative logarithm of the midpoint of each curve and listed with their standard error of measurement (SEM). Logarithm base 10 of the agonist dose ratio (Log DR) values were calculated by subtraction of the test compound pA50 value from the corresponding h-SCP (SEQ ID NO:1) control pA50 value within the same assay batch. The SEM values of the Log DR values are given by the square root of the sum of the squared SEM values of the h-SCP (SEQ ID NO:1) control and test compound pA50 values.
# Human and rat peptides (see Table 10) were used on the stimulation of h-CRHR1 or h-CRHR2 transfected SK-N-MC cells in the cAMP flash plate assay. Peptides were incubated for 1 hr at 37° Celsius. Curves were calculated using non-linear regression sigmoidal concentration-response analysis calculation in GraphPad Prism. The so obtained pA50 values are shown in Table 11 in addition to literature values. […]
Log DR,Compound,further results
−0.01,"CC[C@H](C)[C@H](NC(=O)[C@H](CCC(N)=O)NC(=O)[C@H](C)NC(=O)[C@H](CCSC)NC(=O)[C@H](CC(C)C)NC(=O)[C@H](Cc1c[nH]cn1)NC(=O)[C@H](C)NC(=O)[C@H](CC(N)=O)NC(=O)[C@H](CSC1CC(=O)N(CC)C1=O)NC(=O)[C@H](C)NC(=O)[C@H](C)NC(=O)[C@H](CCC(N)=O)NC(=O)[C@H](C)NC(=O)[C@H](CCCNC(=N)N)NC(=O)[C@H](CC(C)C)NC(=O)[C@H](CC(N)=O)NC(=O)[C@H](CCCCN)NC(=O)[C@H](C)NC(=O)[C@H](CCCCN)NC(=O)[C@H](C)NC(=O)[C@@H](NC(=O)[C@H](CC(N)=O)NC(=O)[C@H](Cc1ccccc1)NC(=O)[C@H](CC(C)C)NC(=O)[C@H](CC(C)C)NC(=O)[C@H](CC(N)=O)NC(=O)[C@H](CCSC)NC(=O)[C@@H](NC(=O)[C@H](CC(N)=O)NC(=O)[C@@H](NC(=O)[C@@H]1CCCN1C(=O)[C@@H](NC(=O)[C@H](CC(=O)O)NC(=O)[C@H](CC(C)C)NC(=O)[C@H](CO)NC(=O)[C@H](CC(C)C)NC(=O)[C@@H](NC(=O)[C@H](Cc1ccccc1)NC(=O)[C@H](CCCCN)NC(=O)[C@@H](N)[C@@H](C)O)[C@@H](C)O)C(C)C)[C@@H](C)O)[C@@H](C)CC)[C@@H](C)CC)C(N)=O (stereo partly shown) [SEQ ID NO: 45, TKFTLSLDVPTNIMNLLFNIAKAKNLRAQAAC(-NES)NAH LMAQI-NH2] (H-TKFTLSLDVPTNIMNLLFNIAKAKNLRAQAAC(Succinimide(1-Et,3-yl))NAHLMAQI-NH2; N-terminus assumed)",–
0.41,"TKFTLSLDVPTNIMNLLFNIAKAKNLRAQAAANAHLMCQI-NH2 [SEQ ID NO: 39, TKFTLSLDVPTNIMNLLFNIAKAKNLRAQAAANAHLMCQI-NH2]",–
0.45,"TKFTLSLDVPTNIMNLLFNIAKAKNLRAQAACNAHLMAQI-NH2 [SEQ ID NO: 33, TKFTLSLDVPTNIMNLLFNIAKAKNLRAQAACNAHLMAQI-NH2]",–
>3.19,"TKFTLSLDVPTNIMNLLFNIAKAKNLRAQAAACAHLMAQI-NH2 [SEQ ID NO: 34, TKFTLSLDVPTNIMNLLFNIAKAKNLRAQAAACAHLMAQI-NH2]",–
−0.32,"CC[C@H](C)[C@H](NC(=O)[C@H](CCC(N)=O)NC(=O)[C@H](C)NC(=O)[C@H](CCSC)NC(=O)[C@H](CC(C)C)NC(=O)[C@H](CSC1CC(=O)N(CC)C1=O)NC(=O)[C@H](C)NC(=O)[C@H](CC(N)=O)NC(=O)[C@H](C)NC(=O)[C@H](C)NC(=O)[C@H](C)NC(=O)[C@H](CCC(N)=O)NC(=O)[C@H](C)NC(=O)[C@H](CCCNC(=N)N)NC(=O)[C@H](CC(C)C)NC(=O)[C@H](CC(N)=O)NC(=O)[C@H](CCCCN)NC(=O)[C@H](C)NC(=O)[C@H](CCCCN)NC(=O)[C@H](C)NC(=O)[C@@H](NC(=O)[C@H](CC(N)=O)NC(=O)[C@H](Cc1ccccc1)NC(=O)[C@H](CC(C)C)NC(=O)[C@H](CC(C)C)NC(=O)[C@H](CC(N)=O)NC(=O)[C@H](CCSC)NC(=O)[C@@H](NC(=O)[C@H](CC(N)=O)NC(=O)[C@@H](NC(=O)[C@@H]1CCCN1C(=O)[C@@H](NC(=O)[C@H](CC(=O)O)NC(=O)[C@H](CC(C)C)NC(=O)[C@H](CO)NC(=O)[C@H](CC(C)C)NC(=O)[C@@H](NC(=O)[C@H](Cc1ccccc1)NC(=O)[C@H](CCCCN)NC(=O)[C@@H](N)[C@@H](C)O)[C@@H](C)O)C(C)C)[C@@H](C)O)[C@@H](C)CC)[C@@H](C)CC)C(N)=O (stereo partly shown) [SEQ ID NO: 43, TKFTLSLDVPTNIMNLLFNIAKAKNLRAQAAANAC(-NES) LMAQI-NH2] (H-TKFTLSLDVPTNIMNLLFNIAKAKNLRAQAAANAC(Succinimide(1-Et,3-yl))LMAQI-NH2; N-terminus assumed)",–
>2.95,"TKFTLSLDVPTNIMNLLFNIAKAKNLRAQAAANAHLCAQI-NH2 [SEQ ID NO: 38, TKFTLSLDVPTNIMNLLFNIAKAKNLRAQAAANAHLCAQI-NH2]",–
0.00,"TKFTLSLDVPTNIMNLLFNIAKAKNLRCQAAANAHLMAQI-NH2 [SEQ ID NO: 29, TKFTLSLDVPTNIMNLLFNIAKAKNLRCQAAANAHLMAQI-NH2]",–
0.76,"TKFTLSLDVPTNIMNLLFNIAKAKNCRAQAAANAHLMAQI-NH2 [SEQ ID NO: 27, TKFTLSLDVPTNIMNLLFNIAKAKNCRAQAAANAHLMAQI-NH2]",–

# Second part, the compound before the results:
Compound,Log DR,further results
"TKFTLSLDCPTNIMNLLFNIAKAKNLRAQAAANAHLMAQI-NH2 [SEQ ID NO: 10, TKFTLSLDCPTNIMNLLFNIAKAKNLRAQAAANAHLMAQI-NH2]",1.30,–
"TKFTLSCDVPTNIMNLLFNIAKAKNLRAQAAANAHLMAQI-NH2 [SEQ ID NO: 8, TKFTLSCDVPTNIMNLLFNIAKAKNLRAQAAANAHLMAQI-NH2]",2.86,–
"TKFTLSLDVCTNIMNLLFNIAKAKNLRAQAAANAHLMAQI-NH2 [SEQ ID NO: 11, TKFTLSLDVCTNIMNLLFNIAKAKNLRAQAAANAHLMAQI-NH2]",0.82,–
"TKFTLSLDVPTNIMNLLFNCAKAKNLRAQAAANAHLMAQI-NH2 [SEQ ID NO: 21, TKFTLSLDVPTNIMNLLFNCAKAKNLRAQAAANAHLMAQI-NH2]",0.77,–
"TKFTLSLDVPTNIMNLLFNIAKAKCLRAQAAANAHLMAQI-NH2 [SEQ ID NO: 26, TKFTLSLDVPTNIMNLLFNIAKAKCLRAQAAANAHLMAQI-NH2]",0.08,–
"TKFTLSLDVPTNIMNLLCNIAKAKNLRAQAAANAHLMAQI-NH2 [SEQ ID NO: 19, TKFTLSLDVPTNIMNLLCNIAKAKNLRAQAAANAHLMAQI-NH2]",1.67,–
"TKFTLSLDVPTNIMNLCFNIAKAKNLRAQAAANAHLMAQI-NH2 [SEQ ID NO: 18, TKFTLSLDVPTNIMNLCFNIAKAKNLRAQAAANAHLMAQI-NH2]",1.11,–
"TKFTLSLDVPTNIMNLLFNIAKAKNLRAQAAANAHLMAQI-OH [SEQ ID NO: 113, TKFTLSLDVPTNIMNLLFNIAKAKNLRAQAAANAHLMAQI, reference compound]",–,"nH (Table 12, Hill slope): 1.07; fold less potent than the amidated parent peptide (versus h-SCP (SEQ ID NO:1)): approximately 200 fold"
"LDVPTNIMNLLFNIAKAKNLRAQAAANAHLMAQI-NH2 [SEQ ID NO: 111, LDVPTNIMNLLFNIAKAKNLRAQAAANAHLMAQI-NH2]",–,"Kd (tested as antagonists of h-SCP at 10 μM, read-out: receptor affinity (KA)): < 10 µM"
"TKFTLSLDVPTNIMNCLFNIAKAKNLRAQAAANAHLMAQI-NH2 [SEQ ID NO: 17, TKFTLSLDVPTNIMNCLFNIAKAKNLRAQAAANAHLMAQI-NH2]",0.02,–
